Test results reported in US20040018941A1, “Fused-benzene derivatives of thiouracil, herbicidal and desiccant compositions contaning them” (ISHIHARA SANGYO KAISHA, LTD., priority 2002, published 2004).

Columns and labels:
Type in all cases: in vivo
Details in all cases: rating 0-100 (0 no damage, 100 complete death), 14 days after application
[1] = system: lambsquarters (Chenopodium album, CHEAL); assay: Pre-emerge herbicidal activity, greenhouse screen, CHEAL
Description: (§1) A standard greenhouse herbicide activity screening system was used to evaluate the herbicidal efficacy and crop safety of these test compounds. Seven broadleaf weed species including redroot pigweed (Amaranthus retroflexus, AMARE), velvetleaf (Abutilon theophrasti, ABUTH), sicklepod (Cassia obtusifolia, CASOB), ivyleaf morningglory (Ipomoea hederacea, IPOHE), lambsquarters (Chenopodium album, CHEAL), common ragweed (Ambrosia artemisiifolia L., AMBEL), and cocklebur (Xanthium strumarium, XANST) were used as test species. Four grass weed species including green foxtail (Setaria viridis, SETVI), barnyardgrass (Echinochloa crus-galli, ECHCG), johnsongrass (Sorghum halepense, SORHA), and large crabgrass (Digitaria sanguinalis, DIGSA) were also used. In addition, three crop species, field corn (Zea mays L., var. Dekalb 527, CORN), soybean (Glycine max L., var. Pella 86, SOY), and upland rice (Oryza sp., var. Tebonnet, RICE) were included.
(§2) All plants were grown in 10 cm square plastic pots which were filled with a sandy loam soil mix. For pre-emerge tests, seeds were planted one day prior to application of the test compounds. For post-emerge tests, seeds were planted 8-21 days prior to the test to allow emergence and good foliage development prior to application of the test substances. At the time of the post-emerge application, plants of all species were usually at the 2-3 leaf stage of development.
(§3) All test compounds were dissolved in acetone and applied to the test units in a volume of 187 l/ha. Test materials were applied at rates ranging from 15 g ai/ha to 1000 g ai/ha using a track sprayer equipped with a TJ8001 E even flow flat fan spray nozzle. Plants were arranged on a shelf so that the top of the canopy (post-emerge) or top of the soil surface (pre-emerge) was 40-45 cm below the nozzle. Pressurized air was used to force the test solution through the nozzle as it was mechanically advanced over the top of all test plants/pots. This application simulates a typical commercial field herbicide application.
(§4) In the post-emerge test, a commercial non-ionic surfactant was also included (0.25% v/v) to enhance wetting of the leaf surfaces of target plants. Immediately after application, test units of the pre-emerge applications were watered at the soil surface to incorporate the test materials.
(§5) At 14 days after application of the test materials, phytotoxicity ratings were recorded. A rating scale of 0-100 was used as previously described in Research Methods in Weed Science, 2nd edition, B. Truelove, Ed., Southern Weed Science Society, Auburn University, Auburn, Ala., 1977. Briefly, “0” corresponds to no damage and “100” corresponds to complete death of all plants in the test unit. This scale was used both to determine efficacy against weed species and damage to crop species. Herbicide activity data for various compounds of this invention, which are shown by compound No. in Tables 1-7, are shown in Tables 8 and 9.

[2] = system: barnyardgrass (Echinochloa crus-galli, ECHCG); assay: Post-emerge herbicidal activity, greenhouse screen, ECHCG
Description: as §1, §2, §3, §4, §5

[3] = system: field corn (Zea mays L., var. Dekalb 527, CORN); assay: Post-emerge crop damage, greenhouse screen, CORN
Description: as §1, §2, §3, §4, §5

[4] = system: lambsquarters (Chenopodium album, CHEAL); assay: Post-emerge herbicidal activity, greenhouse screen, CHEAL
Description: as §1, §2, §3, §4, §5

[5] = system: redroot pigweed (Amaranthus retroflexus, AMARE); assay: Post-emerge herbicidal activity, greenhouse screen, AMARE
Description: as §1, §2, §3, §4, §5

[6] = system: johnsongrass (Sorghum halepense, SORHA); assay: Post-emerge herbicidal activity, greenhouse screen, SORHA
Description: as §1, §2, §3, §4, §5

[7] = system: johnsongrass (Sorghum halepense, SORHA); assay: Pre-emerge herbicidal activity, greenhouse screen, SORHA
Description: as §1, §2, §3, §4, §5

[8] = system: upland rice (Oryza sp., var. Tebonnet, RICE); assay: Pre-emerge crop damage, greenhouse screen, RICE
Description: as §1, §2, §3, §4, §5

[9] = system: sicklepod (Cassia obtusifolia, CASOB); assay: Pre-emerge herbicidal activity, greenhouse screen, CASOB
Description: as §1, §2, §3, §4, §5

[10] = system: velvetleaf (Abutilon theophrasti, ABUTH); assay: Pre-emerge herbicidal activity, greenhouse screen, ABUTH
Description: as §1, §2, §3, §4, §5

[11] = system: large crabgrass (Digitaria sanguinalis, DIGSA); assay: Pre-emerge herbicidal activity, greenhouse screen, DIGSA
Description: as §1, §2, §3, §4, §5

[12] = system: green foxtail (Setaria viridis, SETVI); assay: Pre-emerge herbicidal activity, greenhouse screen, SETVI
Description: as §1, §2, §3, §4, §5

[13] = system: soybean (Glycine max L., var. Pella 86, SOY); assay: Pre-emerge crop damage, greenhouse screen, SOY
Description: as §1, §2, §3, §4, §5

[14] = system: ivyleaf morningglory (Ipomoea hederacea, IPOHE); assay: Pre-emerge herbicidal activity, greenhouse screen, IPOHE
Description: as §1, §2, §3, §4, §5

[15] = system: green foxtail (Setaria viridis, SETVI); assay: Post-emerge herbicidal activity, greenhouse screen, SETVI
Description: as §1, §2, §3, §4, §5

[16] = system: common ragweed (Ambrosia artemisiifolia L., AMBEL); assay: Post-emerge herbicidal activity, greenhouse screen, AMBEL
Description: as §1, §2, §3, §4, §5

[17] = system: common ragweed (Ambrosia artemisiifolia L., AMBEL); assay: Pre-emerge herbicidal activity, greenhouse screen, AMBEL
Description: as §1, §2, §3, §4, §5

[18] = system: soybean (Glycine max L., var. Pella 86, SOY); assay: Post-emerge crop damage, greenhouse screen, SOY
Description: as §1, §2, §3, §4, §5

[19] = system: velvetleaf (Abutilon theophrasti, ABUTH); assay: Post-emerge herbicidal activity, greenhouse screen, ABUTH
Description: as §1, §2, §3, §4, §5

[20] = system: barnyardgrass (Echinochloa crus-galli, ECHCG); assay: Pre-emerge herbicidal activity, greenhouse screen, ECHCG
Description: as §1, §2, §3, §4, §5

[21] = system: field corn (Zea mays L., var. Dekalb 527, CORN); assay: Pre-emerge crop damage, greenhouse screen, CORN
Description: as §1, §2, §3, §4, §5

[22] = system: upland rice (Oryza sp., var. Tebonnet, RICE); assay: Post-emerge crop damage, greenhouse screen, RICE
Description: as §1, §2, §3, §4, §5

[23] = system: ivyleaf morningglory (Ipomoea hederacea, IPOHE); assay: Post-emerge herbicidal activity, greenhouse screen, IPOHE
Description: as §1, §2, §3, §4, §5

[24] = system: large crabgrass (Digitaria sanguinalis, DIGSA); assay: Post-emerge herbicidal activity, greenhouse screen, DIGSA
Description: as §1, §2, §3, §4, §5

[25] = system: redroot pigweed (Amaranthus retroflexus, AMARE); assay: Pre-emerge herbicidal activity, greenhouse screen, AMARE
Description: as §1, §2, §3, §4, §5

[26] = system: sicklepod (Cassia obtusifolia, CASOB); assay: Post-emerge herbicidal activity, greenhouse screen, CASOB
Description: as §1, §2, §3, §4, §5

Cc1nc2c(Cl)cc(F)c(-n3c(=O)cc(C(F)(F)F)n(C)c3=S)c2o1 [Compound 1-2] was tested, and the “Pre-emerge Herbicidal Activity CHEAL” value ([1]; 63 g ai/ha) was 100, the “Pre-emerge Herbicidal Activity CHEAL” value ([1]; 250 g ai/ha) was 100 and the “Post-emerge Herbicidal Activity ECHCG” value ([2]; 63 g ai/ha) was 100. For the same compound, the “Post-emerge Herbicidal Activity ECHCG” value ([2]; 250 g ai/ha) was 100, the “Post-emerge Herbicidal Activity CORN (crop damage)” value ([3]; 63 g ai/ha) was 25 and the “Post-emerge Herbicidal Activity CORN (crop damage)” value ([3]; 250 g ai/ha) was 35. For the same compound, the “Post-emerge Herbicidal Activity CHEAL” value ([4]; 63 g ai/ha) was 100, the “Post-emerge Herbicidal Activity CHEAL” value ([4]; 250 g ai/ha) was 100 and the “Post-emerge Herbicidal Activity AMARE” value ([5]; 63 g ai/ha) was 100. The “Post-emerge Herbicidal Activity AMARE” value ([5]; 250 g ai/ha) was 100, the “Post-emerge Herbicidal Activity SORHA” value ([6]; 63 g ai/ha) was 100 and the “Post-emerge Herbicidal Activity SORHA” value ([6]; 250 g ai/ha) was 100. The “Pre-emerge Herbicidal Activity SORHA” value ([7]; 63 g ai/ha) was 100, the “Pre-emerge Herbicidal Activity SORHA” value ([7]; 250 g ai/ha) was 100 and the “Pre-emerge Herbicidal Activity RICE (crop damage)” value ([8]; 63 g ai/ha) was 99. For the same compound, the “Pre-emerge Herbicidal Activity RICE (crop damage)” value ([8]; 250 g ai/ha) was 100, the “Pre-emerge Herbicidal Activity CASOB” value ([9]; 63 g ai/ha) was 100 and the “Pre-emerge Herbicidal Activity CASOB” value ([9]; 250 g ai/ha) was 100. For the same compound, the “Pre-emerge Herbicidal Activity ABUTH” value ([10]; 63 g ai/ha) was 100, the “Pre-emerge Herbicidal Activity ABUTH” value ([10]; 250 g ai/ha) was 100 and the “Pre-emerge Herbicidal Activity DIGSA” value ([11]; 63 g ai/ha) was 100. For the same compound, the “Pre-emerge Herbicidal Activity DIGSA” value ([11]; 250 g ai/ha) was 100, the “Pre-emerge Herbicidal Activity SETVI” value ([12]; 63 g ai/ha) was 100 and the “Pre-emerge Herbicidal Activity SETVI” value ([12]; 250 g ai/ha) was 100. For the same compound, the “Pre-emerge Herbicidal Activity SOY (crop damage)” value ([13]; 63 g ai/ha) was 100, the “Pre-emerge Herbicidal Activity SOY (crop damage)” value ([13]; 250 g ai/ha) was 100 and the “Pre-emerge Herbicidal Activity IPOHE” value ([14]; 63 g ai/ha) was 100. The “Pre-emerge Herbicidal Activity IPOHE” value ([14]; 250 g ai/ha) was 100, the “Post-emerge Herbicidal Activity SETVI” value ([15]; 63 g ai/ha) was 100 and the “Post-emerge Herbicidal Activity SETVI” value ([15]; 250 g ai/ha) was 100. The “Post-emerge Herbicidal Activity AMBEL” value ([16]; 63 g ai/ha) was 100, the “Post-emerge Herbicidal Activity AMBEL” value ([16]; 250 g ai/ha) was 100 and the “Pre-emerge Herbicidal Activity AMBEL” value ([17]; 63 g ai/ha) was 100. The “Pre-emerge Herbicidal Activity AMBEL” value ([17]; 250 g ai/ha) was 100, the “Post-emerge Herbicidal Activity SOY (crop damage)” value ([18]; 63 g ai/ha) was 100 and the “Post-emerge Herbicidal Activity SOY (crop damage)” value ([18]; 250 g ai/ha) was 100. For the same compound, the “Post-emerge Herbicidal Activity ABUTH” value ([19]; 63 g ai/ha) was 100, the “Post-emerge Herbicidal Activity ABUTH” value ([19]; 250 g ai/ha) was 100 and the “Pre-emerge Herbicidal Activity ECHCG” value ([20]; 63 g ai/ha) was 100. The “Pre-emerge Herbicidal Activity ECHCG” value ([20]; 250 g ai/ha) was 100, the “Pre-emerge Herbicidal Activity CORN (crop damage)” value ([21]; 63 g ai/ha) was 100 and the “Pre-emerge Herbicidal Activity CORN (crop damage)” value ([21]; 250 g ai/ha) was 100. The “Post-emerge Herbicidal Activity RICE (crop damage)” value ([22]; 63 g ai/ha) was 75, the “Post-emerge Herbicidal Activity RICE (crop damage)” value ([22]; 250 g ai/ha) was 80 and the “Post-emerge Herbicidal Activity IPOHE” value ([23]; 63 g ai/ha) was 100. The “Post-emerge Herbicidal Activity IPOHE” value ([23]; 250 g ai/ha) was 100, the “Post-emerge Herbicidal Activity DIGSA” value ([24]; 63 g ai/ha) was 99 and the “Post-emerge Herbicidal Activity DIGSA” value ([24]; 250 g ai/ha) was 100. For the same compound, the “Pre-emerge Herbicidal Activity AMARE” value ([25]; 63 g ai/ha) was 100, the “Pre-emerge Herbicidal Activity AMARE” value ([25]; 250 g ai/ha) was 100 and the “Post-emerge Herbicidal Activity CASOB” value ([26]; 63 g ai/ha) was 100. For the same compound, the “Post-emerge Herbicidal Activity CASOB” value ([26]; 250 g ai/ha) was 100.
